Measured values taken from patent publication US4138554A, “7-[D-α-(4-Hydroxy-1,5-naphthyridine-3-carboxamido)-α-phenyl (and p-hydroxyphenyl)acetamido]-3-carbamoyloxymethyl-3-cephem-4-carboxylic acids” (priority 1977, dated 1979).
Like-named read-outs stand apart in the source and are kept apart here.

What was measured:
Assay type in all cases: cell-based
S. enteritidis = experiment: MIC by serial two-fold agar dilution (Mueller-Hinton agar), S. enteritidis; settings: Salmonella enterica; S. enteritidis A9531, Table 6; read-out: MIC
Procedure, shortened: (§1)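 Agar dilution MICs were determined on Mueller-Hinton medium with two-fold compound steps and Steers' multipoint inoculation, across 31 primary-screen organisms and 61 P. aeruginosa strains.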

[1] = system: Gram-positive (6 strains); experiment: Mean % relative activity (MIC) vs sulbenicillin, Gram-positive (6 strains); settings: G (+) (6 strains), Table 5
Experimental: (§2) Minimum inhibitory concentrations (MIC) of BB-S520 were determined by serial two-fold agar dilution method using Steers' apparatus on Meuller-Hinton agar plate against 31 test organisms for the primary screening and also against 61 strains of Pseudomonas aeruginosa for the secondary evaluation. The results are shown in Table 1 and Table 2 along with those of BB-S514 and sulbenicillin.
(§3) Minimum inhibitory concentrations (MIC) of cephalosporins in the present study were determined by serial two-fold agar dilution method using Steers' apparatus on Mueller-Hinton agar plate against 31 test organisms for the primary screening and also against 61 strains of Pseudomonas aeruginosa for the secondary evaluation.

Pseudomonas sp. = experiment: MIC by serial two-fold agar dilution (Mueller-Hinton agar), Pseudomonas sp.; settings: Pseudomonas sp. A20358, Table 6
Experimental: as §3

P. mirabilis = experiment: MIC by serial two-fold agar dilution (Mueller-Hinton agar), P. mirabilis; settings: Proteus mirabilis; P. mirabilis A9900, Table 6; read-out: MIC
Procedure, shortened: as §1

E. cloacae = experiment: MIC by serial two-fold agar dilution (Mueller-Hinton agar), E. cloacae; settings: Enterobacter cloacae
Procedure, shortened: as §1

Pseudomonas aeruginosa = experiment: MIC by agar dilution against 61 strains of Pseudomonas aeruginosa, secondary evaluation; settings: for MIC: Pseudomonas aeruginosa
Procedure, shortened: as §1

[2] = system: Gram-negative (19 strains); experiment: Mean % relative activity (MIC) vs sulbenicillin, Gram-negative (19 strains); settings: G (-) (19 strains), Table 5
Experimental: as §2, §3

NC(=O)OCC1=C(C(=O)O)N2C(=O)C(NC(=O)[C@H](NC(=O)c3cnc4cccnc4c3O)c3ccc(O)cc3)C2SC1 (single isomer, unassigned) [BB-S530, Sodium 7-[D-(-)-α-(4-hydroxy-1,5-naphthyridine-3-carboxamido)-α-(p-hydroxyphenyl)acetamido]-3-carbamoyloxymethyl-3-cephem-4-carboxylate]
MIC (S. enteritidis): 0.8 µg/mL
Mean % Relative Activity (SPBC = 100%) [1]: 141%
MIC (Pseudomonas sp.): 0.4 µg/mL
MIC (P. mirabilis): 6.3 µg/mL
MIC (E. cloacae; E. cloacae A9656, Table 6): 12.5 µg/mL
MIC (E. cloacae; E. cloacae A9657, Table 6): 100 µg/mL
MIC (E. cloacae; E. cloacae A9659, Table 6): 100 µg/mL
Rel. Act. (SBPC=100%) (Pseudomonas aeruginosa; 61 strains of Pseudomonas aeruginosa, Table 7): 1694%
Mean % Relative Activity (SPBC = 100%) (Pseudomonas aeruginosa; P. aerug. (61 strains), Table 5): 1694%
MIC (Pseudomonas aeruginosa; 61 strains of Pseudomonas aeruginosa, Table 7, read-out: Geometric Mean of MIC): 1.4 µg/mL
MIC (Pseudomonas aeruginosa; BBRI Pa-No. 1, D15, Table 7, read-out: MIC): 6.3 µg/mL
MIC (Pseudomonas aeruginosa; BBRI Pa-No. 2, VA, Table 7, read-out: MIC): 1.6 µg/mL
MIC (Pseudomonas aeruginosa; BBRI Pa-No. 3, 1449VA, Table 7, read-out: MIC): 0.8 µg/mL
MIC (Pseudomonas aeruginosa; BBRI Pa-No. 4, H9 D113, Table 7, read-out: MIC): 1.6 µg/mL
MIC (Pseudomonas aeruginosa; BBRI Pa-No. 5, N4865KC, Table 7, read-out: MIC): 1.6 µg/mL
MIC (Pseudomonas aeruginosa; BBRI Pa-No. 6, No. 5, Table 7, read-out: MIC): 6.3 µg/mL
MIC (Pseudomonas aeruginosa; BBRI Pa-No. 7, Table 7, read-out: MIC): 1.6 µg/mL
MIC (Pseudomonas aeruginosa; BBRI Pa-No. 8, Table 7, read-out: MIC): 1.6 µg/mL
MIC (Pseudomonas aeruginosa; BBRI Pa-No. 9, Yale, Table 7, read-out: MIC): 1.6 µg/mL
MIC (Pseudomonas aeruginosa; BBRI Pa-No. 10, Table 7, read-out: MIC): 100 µg/mL
MIC (Pseudomonas aeruginosa; BBRI Pa-No. 11, Table 7, read-out: MIC): 1.6 µg/mL
MIC (Pseudomonas aeruginosa; BBRI Pa-No. 12, Table 7, read-out: MIC): 1.6 µg/mL
MIC (Pseudomonas aeruginosa; BBRI Pa-No. 14, Table 7, read-out: MIC): 0.8 µg/mL
MIC (Pseudomonas aeruginosa; BBRI Pa-No. 15, Table 7, read-out: MIC): 3.1 µg/mL
MIC (Pseudomonas aeruginosa; BBRI Pa-No. 16, No. 130, Table 7, read-out: MIC): < 0.2 µg/mL
MIC (Pseudomonas aeruginosa; BBRI Pa-No. 17, H6 D114, Table 7, read-out: MIC): 12.5 µg/mL
MIC (Pseudomonas aeruginosa; BBRI Pa-No. 18, H8 D121, Table 7, read-out: MIC): 0.4 µg/mL
MIC (Pseudomonas aeruginosa; BBRI Pa-No. 19, Table 7, read-out: MIC): 0.4 µg/mL
MIC (Pseudomonas aeruginosa; BBRI Pa-No. 20, Table 7, read-out: MIC): 1.6 µg/mL
MIC (Pseudomonas aeruginosa; BBRI Pa-No. 21, Table 7, read-out: MIC): 1.6 µg/mL
MIC (Pseudomonas aeruginosa; BBRI Pa-No. 23, Table 7, read-out: MIC): 1.6 µg/mL
MIC (Pseudomonas aeruginosa; BBRI Pa-No. 24, Table 7, read-out: MIC): 50 µg/mL
MIC (Pseudomonas aeruginosa; BBRI Pa-No. 25, Table 7, read-out: MIC): 0.8 µg/mL
MIC (Pseudomonas aeruginosa; BBRI Pa-No. 26, Ps32, Table 7, read-out: MIC): 6.3 µg/mL
MIC (Pseudomonas aeruginosa; BBRI Pa-No. 28, CPH1C527/72, Table 7, read-out: MIC): 1.6 µg/mL
MIC (Pseudomonas aeruginosa; BBRI Pa-No. 29, D122, Table 7, read-out: MIC): 0.8 µg/mL
MIC (Pseudomonas aeruginosa; BBRI Pa-No. 30, Table 7, read-out: MIC): 0.8 µg/mL
MIC (Pseudomonas aeruginosa; BBRI Pa-No. 31, Table 7, read-out: MIC): < 0.2 µg/mL
MIC (Pseudomonas aeruginosa; BBRI Pa-No. 32, Table 7, read-out: MIC): 0.8 µg/mL
MIC (Pseudomonas aeruginosa; BBRI Pa-No. 33, Table 7, read-out: MIC): 0.8 µg/mL
MIC (Pseudomonas aeruginosa; BBRI Pa-No. 34, Table 7, read-out: MIC): 0.4 µg/mL
MIC (Pseudomonas aeruginosa; BBRI Pa-No. 35, Table 7, read-out: MIC): 1.6 µg/mL
MIC (Pseudomonas aeruginosa; BBRI Pa-No. 36, Table 7, read-out: MIC): < 0.2 µg/mL
MIC (Pseudomonas aeruginosa; BBRI Pa-No. 37, Table 7, read-out: MIC): 1.6 µg/mL
MIC (Pseudomonas aeruginosa; BBRI Pa-No. 38, Table 7, read-out: MIC): 3.1 µg/mL
MIC (Pseudomonas aeruginosa; BBRI Pa-No. 39, Table 7, read-out: MIC): 0.8 µg/mL
MIC (Pseudomonas aeruginosa; BBRI Pa-No. 41, Table 7, read-out: MIC): 1.6 µg/mL
MIC (Pseudomonas aeruginosa; BBRI Pa-No. 42, Table 7, read-out: MIC): 1.6 µg/mL
MIC (Pseudomonas aeruginosa; BBRI Pa-No. 43, Table 7, read-out: MIC): 1.6 µg/mL
MIC (Pseudomonas aeruginosa; BBRI Pa-No. 44 (unnamed strain), Table 7, read-out: MIC): 1.6 µg/mL
MIC (Pseudomonas aeruginosa; BBRI Pa-No. 51, Table 7, read-out: MIC): 0.8 µg/mL
MIC (Pseudomonas aeruginosa; BBRI Pa-No. 52, Table 7, read-out: MIC): 1.6 µg/mL
MIC (Pseudomonas aeruginosa; BBRI Pa-No. 53, Table 7, read-out: MIC): 0.8 µg/mL
MIC (Pseudomonas aeruginosa; BBRI Pa-No. 54, Table 7, read-out: MIC): 0.8 µg/mL
MIC (Pseudomonas aeruginosa; BBRI Pa-No. 55, Table 7, read-out: MIC): 1.6 µg/mL
MIC (Pseudomonas aeruginosa; BBRI Pa-No. 56, Table 7, read-out: MIC): 1.6 µg/mL
MIC (Pseudomonas aeruginosa; BBRI Pa-No. 57, Table 7, read-out: MIC): 0.8 µg/mL
MIC (Pseudomonas aeruginosa; BBRI Pa-No. 58, Table 7, read-out: MIC): 1.6 µg/mL
MIC (Pseudomonas aeruginosa; BBRI Pa-No. 59, Table 7, read-out: MIC): 0.8 µg/mL
MIC (Pseudomonas aeruginosa; BBRI Pa-No. 60, Table 7, read-out: MIC): 0.8 µg/mL
MIC (Pseudomonas aeruginosa; BBRI Pa-No. 61, Table 7, read-out: MIC): 1.6 µg/mL
MIC (Pseudomonas aeruginosa; BBRI Pa-No. 62, Table 7, read-out: MIC): 100 µg/mL
MIC (Pseudomonas aeruginosa; BBRI Pa-No. 64, Table 7, read-out: MIC): 1.6 µg/mL
MIC (Pseudomonas aeruginosa; BBRI Pa-No. 65, Table 7, read-out: MIC): 1.6 µg/mL
MIC (Pseudomonas aeruginosa; BBRI Pa-No. 66, Table 7, read-out: MIC): 0.8 µg/mL
MIC (Pseudomonas aeruginosa; BBRI Pa-No. 67, Table 7, read-out: MIC): 1.6 µg/mL
MIC (Pseudomonas aeruginosa; BBRI Pa-No. 68, Table 7, read-out: MIC): 1.6 µg/mL
MIC (Pseudomonas aeruginosa; BBRI Pa-No. 69, Table 7, read-out: MIC): 3.1 µg/mL
MIC (Pseudomonas aeruginosa; BBRI Pa-No. 70, K-Ps102(CR-102), Table 7, read-out: MIC): 0.8 µg/mL
MIC (Pseudomonas aeruginosa; GN315, BBRI Pa-No. 27, GN315, Table 7, read-out: MIC): 0.4 µg/mL
MIC (Pseudomonas aeruginosa; GN4925, BBRI Pa-No. 44, GN4925, Table 7, read-out: MIC): 1.6 µg/mL
Mean % Relative Activity (SPBC = 100%) [2]: 108%
